Key:
[1] = target: T1, E. coli RecQ helicase (Escherichia coli, UniProt P15043); test: quenched-flow ATP hydrolysis, global fit; type: biochemical; settings: SF50 buffer pH 7.5, 5 mM MgCl2, 50 mM NaCl, 25 °C; gamma-32P-ATP; read-out: DNA-free RecQ
Source text: quenched-flow ATP hydrolysis, global fit on E. coli RecQ helicase

[2] = target: T1, E. coli RecQ helicase; test: stopped-flow FRET binding kinetics; settings: association rate constant, Kd not given, SF50 buffer pH 7.5, 5 mM MgCl2, 25 °C, labelled compound
Source text: stopped-flow FRET binding kinetics on E. coli RecQ helicase

[3] = target: T1, E. coli RecQ helicase; test: stopped-flow FRET binding kinetics (k-1/k1); settings: read-out: DNA-free RecQ
Source text: stopped-flow FRET binding kinetics (k-1/k1) on E. coli RecQ helicase

T1 sequence (P15043 2-609): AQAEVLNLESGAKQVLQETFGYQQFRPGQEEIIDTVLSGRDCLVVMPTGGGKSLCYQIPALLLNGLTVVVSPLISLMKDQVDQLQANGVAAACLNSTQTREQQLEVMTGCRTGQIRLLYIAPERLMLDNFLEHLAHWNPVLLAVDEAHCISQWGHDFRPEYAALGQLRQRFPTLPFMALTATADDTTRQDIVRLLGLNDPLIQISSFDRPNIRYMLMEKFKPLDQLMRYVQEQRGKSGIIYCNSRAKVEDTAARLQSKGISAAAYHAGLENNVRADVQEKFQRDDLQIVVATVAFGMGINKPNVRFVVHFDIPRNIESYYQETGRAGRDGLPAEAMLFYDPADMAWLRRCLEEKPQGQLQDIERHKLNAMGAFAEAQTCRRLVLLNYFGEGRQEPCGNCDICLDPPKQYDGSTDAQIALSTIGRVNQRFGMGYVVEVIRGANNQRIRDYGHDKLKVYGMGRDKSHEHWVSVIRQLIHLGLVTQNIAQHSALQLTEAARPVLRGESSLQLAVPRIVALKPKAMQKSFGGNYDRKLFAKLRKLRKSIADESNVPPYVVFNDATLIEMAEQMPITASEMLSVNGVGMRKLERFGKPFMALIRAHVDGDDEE

Nc1ncnc2c1ncn2[C@@H]1O[C@H](COP(=O)(O)OP(=O)(O)OP(=O)(O)O)[C@@H](O)[C@H]1O [ATP] gave a Kd [1] of 120 ± 30 µM.

CNc1ccccc1C(=O)O[C@H]1C[C@H](n2cnc3c(N)ncnc32)O[C@@H]1COP(=O)(O)OP(=O)(O)O [mdADP] was tested, and the “DNA-free RecQ” value [2] was 4.5 ± 0.5 µM⁻¹ s⁻¹.

CNc1ccccc1C(=O)O[C@H]1C[C@H](n2cnc3c(N)ncnc32)O[C@@H]1COP(=O)(O)OP(=O)(O)OP(=O)(O)O [mdATP, 3′-(N-methylanthraniloyl)-2′-deoxy-ATP] showed a Kd [3] of 15 ± 2 µM.

From publication PMC4333385 (Nucleic Acids Research, 2014)
